Data reported in patent publication US20250367185A1, “TRANSLESION SYNTHESIS POLYMERASE INHIBITORS AND USES THEREOF” (THE UNIVERSITY OF VERMONT AND STATE AGRICULTURAL COLLEGE, priority 2022, published 2025).

What was measured:
Type in all cases: cell-based
[1] = test system: A549-ACE2+ cells infected with SARS-COV-2; assay: Microsatellite instability (MSI) in SARS-COV-2 infected cells
[2] = test system: DDR, TLS, and DNA repair genes in A549-ACE2+ cells
[3] = test system: gH2AX in SARS-CoV-2 infected A549-ACE2+ cells; assay: gH2AX expression in SARS-CoV-2 infected cells; conditions: SARS-CoV-2 infected A549-ACE2+ cells at 48 hours
Procedure: Next, whether other genome instability markers were also repressed by the Compound 1 treatment in SARS-COV-2 infected cells was examined. Compound 1 treatment of the A549-ACE2+ cells suppressed transcript expression of all the DDR, TLS, and DNA repair genes. Likewise, the enhanced expression of gH2AX in SARS-CoV-2 infected A549-ACE2+ cells at 48 hours was suppressed by up to 40-fold post-Compound 1 treatment.

[4] = test system: SARS-CoV-2 infected A549-ACE2+ cells
SARS-COV-2 = SARS-COV-2 proliferation in cell lines, relative mRNA content
[5] = test system: p62 and LC3 in SARS-COV-2 infected cells
Dengue virus = Dengue virus viral load in infected A549-ACE2+ cells; conditions: 10 μM, compared to non-treated cells, data at 24 hours, 48 hours and 5 days post-infection
Procedure: FIG. 2 is a graph showing the relative reduction of mRNA in untreated A549-ACE2+ cells (“Not Treated”) and in cells post-treatment with Compound 1 (“JH Treated”) at 24 and 48 hours post-infection with Dengue virus.
FIG. 3 is a graph showing the relative reduction of mRNA in untreated A549-ACE2+ cells and cells post treatment with Compound 1 (“JH Treated”) or untreated (“Not Treated”) 5 days post-infection with Dengue virus.
Compound 1 (10 μM) was administered to A549-ACE2+ cells infected with Dengue virus and the resulting viral loads were measured (FIGS. 2 and 3). Compared to non-treated cells, those treated with Compound 1 suppressed Dengue virus by 77-fold. Data is shown 24 hours, 48 hours, and 5 days post-infection (PI).

In the case of `CC(C)CC(=O)c1c(Nc2ccc(C(=O)O)cc2Cl)[nH]c2c(Cl)ccc([N+](=O)[O-])c2c1=O` [Compound 1, 3-chloro-4-((8-chloro-3-(3-methylbutanoyl)-5-nitro-4-oxo-1,4-dihydroquinolin-2-yl)amino)benzoic acid], the “SARS-COV-2-dependent MSI” value [1] is reported as “suppress”, the “transcript expression of all the DDR, TLS, and DNA repair genes” value [2] is reported as “suppressed” and the “suppression of enhanced gH2AX expression” value [3] is reported as “up to 40 fold”. For the same molecule, the “rescue of telomere instability” value [4] was “did not rescue”, the “proliferation of SARS-COV-2, relative mRNA content in cells” value (SARS-COV-2; A549-ACE2+ cells) was “directly suppress” and the “proliferation of SARS-COV-2, relative mRNA content in cells” value (SARS-COV-2; Calu-3 cells) was “directly suppress”. The “proliferation of SARS-COV-2, relative mRNA content in cells” value (SARS-COV-2; Vero cells) was “directly suppress”, the “expression of LC3” value [5] was “significantly increases” and the “expression of p62” value [5] was “significantly increases”. For the same molecule, the “suppression of Dengue virus (viral load)” value (Dengue virus) was 77 fold.
